Measurements: article PMC7669869, “AdipoR1/AdipoR2 dual agonist recovers nonalcoholic steatohepatitis and related fibrosis via endoplasmic reticulum-mitochondria axis” (Nature Communications, 2020)
Where “and” joins values, the source holds several entries; their conditions need not be identical. Equal values may be shown once. Non-standard residues stand in square brackets, D forms with d. Residues, ends and D or L forms follow the SMILES beside them. Nva = CCC[C@H](N)C(=O)O

Key:
[1] = system: HFD induced NASH mice; assay: HFD mice: oral glucose tolerance test (OGTT); format: in vivo, mouse; details: JT003 500 μg kg−1, in words
Description: Fasting blood glucose was measured using OneTouch UltraVue Blood Glucose Meter and test strips (Johnson&Johnson, USA) from tail nicks. After HFD fed for 14 weeks and JT003 treated for 2 weeks, oral glucose tolerance tests were performed on 8 h fasted mice. 0.5 g ml^−1 D-glucose solution (Sigma-Aldrich, USA) were oral injected to mice (2 g kg^−1 of bodyweight), blood glucose level was recorded at baseline, 15, 30, 60, 120 min

[2] = target: T1, AdipoR1 (Homo sapiens, UniProt Q96A54); assay: HTRF binding, AdipoR1 overexpression HEK293 cells; details: in words
T1 construct: His; host or cells: HEK293
T1 sequence (Q96A54 1-375): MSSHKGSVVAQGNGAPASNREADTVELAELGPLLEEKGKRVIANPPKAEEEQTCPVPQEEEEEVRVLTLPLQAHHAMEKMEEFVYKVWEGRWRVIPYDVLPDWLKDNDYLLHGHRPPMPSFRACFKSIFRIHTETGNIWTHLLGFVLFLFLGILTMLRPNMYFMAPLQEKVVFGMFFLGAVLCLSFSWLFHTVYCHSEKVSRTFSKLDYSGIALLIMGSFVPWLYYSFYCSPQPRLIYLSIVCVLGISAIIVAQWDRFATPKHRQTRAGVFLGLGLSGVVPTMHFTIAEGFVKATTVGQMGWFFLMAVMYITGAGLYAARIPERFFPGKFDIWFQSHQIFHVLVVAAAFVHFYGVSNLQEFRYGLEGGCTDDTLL
Description: The expression plasmid of AdipoR1 and AdipoR2 were synthesized and codon optimized by Genescript (Nanjing, China) for their expression in HEK293 cell line. The concentration of FITC-JT003 was 0, 0.1, 0.25, 0.5, 1, 2.5 or 5 μM respectively. Unlabeled peptide JT003 was used as the control to measure the non-specific signal. 10E4 AdipoR1 and AdipoR2 overexpression cells, anti-His-Tb (ThermoFisher Scientific, USA) and JT003-FITC were added into a 384-well plate, with a total volume of 25μl. The mixtures were incubated at room temperature for 30 min in the dark. Fluorescent values at 520 nm and 620 nm were measured for Kd calculation.

[3] = system: liver gene expression of CCl4 induced liver fibrosis mice; assay: CCl4 mice: liver mRNA, quantitative RT-PCR; format: in vivo, mouse; set-up: key to BAX liver mRNA / BID liver mRNA / UCP2 liver mRNA / DGAT1 liver mRNA / GSTM1 liver mRNA / GPX1 liver mRNA / HO-1 liver mRNA / XBP1 liver mRNA / ATF4 liver mRNA / GRP78 liver mRNA / BIM liver mRNA: mRNA expression normalized to β-actin reference gene; details: for BCL2 liver mRNA, relative expression (Apotosis), Supplementary Figure 16 / FAS liver mRNA, relative expression (Apotosis), Supplementary Figure 16: CCl4 + JT003 mice
Description: Male mice liver fibrosis was induced by intraperitoneal injection of 20% CCl4 (Sigma, USA) diluted in corn oil (Aladdin, China) every 3 days for 6 weeks (n = 6; 5 ml kg^−1 body weight). Mice injected with equivalent volume of corn oil serves as control group (n = 6). Liver fibrosis mice treated with JT003 for 3 weeks were used to evaluated the pharmacological effects (n = 6; 500 μg kg^−1; daily intraperitoneal injection).
Liver total RNA was extracted by using Trizol reagent following the manufacture’s instruction (TransGen Biotech, China). The concentration of RNA was measured by Nanodrop 2000 (ThermoFisher Scientific, USA). cDNA was transcribed from 10ug total RNA with First Strand cDNA synthesis Super Mix (TransGen Biotech, China). The cDNA was diluted 1/50 and 1.0 uL were used as a template for qPCR. qPCR was performed with SYBR Green qPCR Super Mix (TransGen Biotech, China) in the Light Cycler 480 Real-Time PCR System (Roche, Swiss). Reference gene β-actin was used for data normalization. mRNA expression was analyzed with specific primers listed in Supplementary Table 2.

[4] = system: liver protein expression of HFD induced NASH mice; assay: HFD mice: liver western blot; format: in vivo, mouse; details: JT003 500 μg kg−1, in words
Description: The NASH model was conducted with feeding a HFD for 16 weeks combine with a MCD diet (Methionine/Choline Deficient Diet, Medicience, China) in the last 4 weeks. Mice administered a MCS diet (Methionine/Choline Sufficient Diet, Medicience, China) serves as control group. NAFLD or NASH mice treated with JT003 for 4 weeks were used to evaluate the pharmacological effects (n = 6; 500 μg kg^−1; daily intraperitoneal injection). Food and water were provided ad libitum. The body weight of mice was examined every 3 days. The diet was renewed every 7 days. JT003 was diluted in PBS.
Total protein was isolated from cells or liver samples using RIPA lysis buffer (50.0 mM Tris-HCl (pH = 8.0), 150.0 mM NaCl, 0.02% NaN3, 0.1% SDS, 1% NP-40, 0.5% deoxysodium cholate, 1 mM EDTA, […]). The protein concentration was quantified with BCA kit (Pierce, ThermoFisher Scientific, USA). Thirty micrograms protein were separated by 10 or 12% sodium dodecyl sulfate-polyacrylamide gel electrophoresis depending on the band of target protein, then transferred onto equilibrated polyvinylidene difluoride membrane (PVDF, Immobilon®-PSQ transfer membranes, Merck Millipore, Germany). Membranes were incubated with primary antibodies overnight at 4 °C. Specific antibodies were listed in Supplementary Table 3. After incubation with the secondary antibody, proteins were detected by enhanced chemiluminescence (Glarity^TM Western ECL Substrate, Bio-Rad, USA) and the signals were recorded and quantified with Tanon-Image Software (Shanghai, China). Reference antibody GAPDH were used for data normalization.

[5] = CCl4 fibrosis mice, liver, JT003 500 μg kg−1, in words
[6] = CCl4 mice, liver, JT003 500 μg kg−1, in words
[7] = Figure 7d left, CCl4 + JT003 group, single replicates, n = 6
[8] = Figure 7d right, CCl4 + JT003 group, single replicates, n = 6

For `CCC[C@H](NC(=O)[C@@H]1CCCN1)C(=O)N[C@@H](CC(C)C)C(=O)N[C@@H](Cc1ccc(O)cc1)C(=O)N[C@@H](Cc1ccc(O)cc1)C(=O)N[C@@H](Cc1ccccc1)C(=O)N[C@@H](C)C(N)=O` [JT003] (H-P[Nva]LYYFA-NH2), the “HFD-induced insulin resistance, oral glucose tolerance test” value [1] was “obviously ameliorated”, the “Kd value for AdipoR1 compared to JT006 and ADP355” value [2] was “significantly lower Kd value” and the “BCL2 liver mRNA, relative expression (Apotosis), Supplementary Figure 16” value (shortened to “BCL2 liver mRNA, relative expression”) ([3]; replicate 1) was 19.1929. For the same molecule, the “FAS liver mRNA, relative expression (Apotosis), Supplementary Figure 16” value (“FAS liver mRNA, relative expression” for short) ([3]; replicate 1) was 0.7337, the “BCL2 liver mRNA, relative expression” value ([3]; replicate 2) was 9.563 and the “FAS liver mRNA, relative expression” value ([3]; replicate 2) was 0.7492. For the same molecule, the “BCL2 liver mRNA, relative expression” value ([3]; replicate 3) was 15.2158, the “FAS liver mRNA, relative expression” value ([3]; replicate 3) was 0.6522 and the “BCL2 liver mRNA, relative expression” value ([3]; replicate 4) was 10.7592. For the same molecule, the “FAS liver mRNA, relative expression” value ([3]; replicate 4) was 0.5898, the “TGFβ, CTGF, IL-6, TNFα and IL-1β (HSCs activation)” value [3, 5] was “all suppressed” and the “expression of genes related to ECM accumulation (TIMP1, MMP3 and MMP8)” value [3, 5] was “decreased”. For the same molecule, the “genes involved in ECM elimination (MMP2, MMP9 and MMP13)” value [3, 5] was “notably upregulated”, the “ER-Stress related genes (XBP1, ATF4, GRP78 and BIM)” value ([3]; CCl4 induced fibrosis mice, liver, JT003 500 μg kg−1, in words) was “remarkably suppressed” and the “anti-apoptotic BCL2 (RT-PCR)” value [3, 6] was “significantly improved”. For the same molecule, the “apoptosis-related FAS (RT-PCR)” value [3, 6] was “reduced”, the “ATF4 liver mRNA” value [3, 7] was 1.16 and 0.7959 and 1.086 (2×) and 0.9357 and 1.157 and the “BIM liver mRNA” value [3, 7] was 0.2472 and 0.8351 and 0.6258 and 0.6305 and 0.5305 and 0.5258. For the same molecule, the “GRP78 liver mRNA” value [3, 7] was 0.8253 and 1.201 and 1.072 (2×) and 0.9986 and 0.797, the “XBP1 liver mRNA” value [3, 7] was 2.911 and 0.8961 and 1.2156 (2×) and 1.656 and 1.136 and the “DGAT1 liver mRNA” value ([3]; Figure 7d right, CCl4 + JT003 group, single replicates, 5 values) was 0.8433 and 1.099 and 1.191 and 0.9141 and 2.738. The “BAX liver mRNA” value [3, 8] was 1.955 and 0.8137 and 1.744 and 0.6724 and 1.0479 and 1.373, the “BID liver mRNA” value [3, 8] was 1.296 and 0.8034 and 0.6436 and 0.8394 and 0.9828 and 0.9284 and the “GPX1 liver mRNA” value [3, 8] was 0.4793 and 0.5322 and 0.6634 and 0.7144 and 0.5138 and 0.7293. For the same molecule, the “GSTM1 liver mRNA” value [3, 8] was 0.3771 and 0.1875 and 0.195 and 1.014 and 0.3719 and 0.9044, the “HO-1 liver mRNA” value [3, 8] was 1.179 and 1.19 and 1.314 and 1.134 and 1.372 and 1.274 and the “PGC1a liver mRNA” value [3, 8] was 1.328 and 1.046 and 1.167 and 1.184 and 1.337 and 1.083. For the same molecule, the “PGC1b liver mRNA” value [3, 8] was 1.159 and 2.677 and 4.191 and 3.928 and 2.638 and 2.374, the “UCP2 liver mRNA” value [3, 8] was 0.9325 and 1.681 and 1.172 and 0.7627 and 0.8293 and 0.6383 and the “PI3K and Akt phosphorylation in liver tissue” value [4] was “increased”. The “AMPK and PPARα signaling (western blotting)” value ([4]; liver) was “activated apparently”, the “expression of downstream factor PPARγ” value ([4]; liver) was “inhibited” and the “phosphorylation of PERK and its downstream eIF2α and JNK” value ([4]; liver) was “decreased notably”.
